Test results from ChEMBL document CHEMBL4425146, “Synthesis and biological evaluation of N(9)-substituted harmine derivatives as potential anticancer agents” (Bioorg Med Chem Lett, 2016).

What was measured:
A549 [1] = assay: Cytotoxicity against human A549 cells assessed as inhibition of cell growth after 48 hrs by MTT assay; type: functional, cell-based; details: A549, 48 h
MCF7 = assay: Cytotoxicity against human MCF7 cells assessed as inhibition of cell growth after 48 hrs by MTT assay; type: functional, cell-based; details: MCF7, 48 h
SMMC-7721 = assay: Cytotoxicity against human SMMC7721 cells assessed as inhibition of cell growth after 48 hrs by MTT assay; type: functional, cell-based; details: SMMC-7721, 48 h
SGC-7901 = assay: Cytotoxicity against human SGC7901 cells assessed as inhibition of cell growth after 48 hrs by MTT assay; type: functional, cell-based; details: SGC-7901, 48 h
A549 [2] = assay: Cell cycle arrest in human A549 cells assessed as accumulation at sub-G1 phase at 0.1 uM after 48 hrs by propidium iodide staining based flow cytometry (reference value: 2.78 %); type: functional
A549 [3] = assay: Cell cycle arrest in human A549 cells assessed as accumulation at sub-G1 phase after 48 hrs by propidium iodide staining based flow cytometry; type: functional
A549 [4] = assay: Induction of apoptosis in human A549 cells assessed as late apoptotic cells at 0.5 uM after 48 hrs by Annexin V-FITC/propidium iodide staining based flow cytometry (reference value: 2.70 %); type: functional
A549 [5] = assay: Cell cycle arrest in human A549 cells assessed as accumulation at S phase at 1 uM after 48 hrs by propidium iodide staining based flow cytometry (reference value: 30.85 %); type: functional
A549 [6] = assay: Cell cycle arrest in human A549 cells assessed as accumulation at S phase at 0.1 uM after 48 hrs by propidium iodide staining based flow cytometry (reference value: 30.85 %); type: functional
A549 [7] = assay: Cell cycle arrest in human A549 cells assessed as accumulation at G2/M phase at 1 uM after 48 hrs by propidium iodide staining based flow cytometry (reference value: 14.62%); type: functional
A549 [8] = assay: Induction of apoptosis in human A549 cells after 48 hrs by Annexin V-FITC/propidium iodide staining based flow cytometry; type: functional, cell-based
A549 [9] = assay: Cell cycle arrest in human A549 cells assessed as accumulation at G0/G1 phase at 0.1 uM after 48 hrs by propidium iodide staining based flow cytometry (reference value: 53.54 %); type: functional
A549 [10] = assay: Induction of apoptosis in human A549 cells assessed as viable cells at 1 uM after 48 hrs by Annexin V-FITC/propidium iodide staining based flow cytometry (reference value: 96.08 %); type: functional; details: A549, 48 h, read-out: Activity
A549 [11] = assay: Cell cycle arrest in human A549 cells assessed as accumulation at sub-G1 phase at 0.5 uM after 48 hrs by propidium iodide staining based flow cytometry (reference value: 2.78 %); type: functional
A549 [12] = assay: Induction of apoptosis in human A549 cells assessed as early apoptotic cells at 0.1 uM after 48 hrs by Annexin V-FITC/propidium iodide staining based flow cytometry (reference value: 0.57 %); type: functional
A549 [13] = assay: Cell cycle arrest in human A549 cells assessed as accumulation at S phase at 0.5 uM after 48 hrs by propidium iodide staining based flow cytometry (reference value: 30.85 %); type: functional
A549 [14] = assay: Cell cycle arrest in human A549 cells assessed as accumulation at G2/M phase at 0.1 uM after 48 hrs by propidium iodide staining based flow cytometry (reference value: 14.62%); type: functional
A549 [15] = assay: Cell cycle arrest in human A549 cells assessed as accumulation at G0/G1 phase at 0.5 uM after 48 hrs by propidium iodide staining based flow cytometry (reference value: 53.54 %); type: functional
A549 [16] = assay: Induction of apoptosis in human A549 cells assessed as early apoptotic cells at 0.5 uM after 48 hrs by Annexin V-FITC/propidium iodide staining based flow cytometry (reference value: 0.57 %); type: functional
A549 [17] = assay: Cell cycle arrest in human A549 cells assessed as accumulation at G0/G1 phase at 1 uM after 48 hrs by propidium iodide staining based flow cytometry (reference value: 53.54 %); type: functional
A549 [18] = assay: Cell cycle arrest in human A549 cells assessed as accumulation at sub-G1 phase at 1 uM after 48 hrs by propidium iodide staining based flow cytometry (reference value: 2.78 %); type: functional
A549 [19] = assay: Induction of apoptosis in human A549 cells assessed as late apoptotic cells at 0.1 uM after 48 hrs by Annexin V-FITC/propidium iodide staining based flow cytometry (reference value: 2.70 %); type: functional
A549 [20] = assay: Induction of apoptosis in human A549 cells assessed as viable cells at 0.1 uM after 48 hrs by Annexin V-FITC/propidium iodide staining based flow cytometry (reference value: 96.08 %); type: functional; details: A549, 48 h, read-out: Activity
A549 [21] = assay: Induction of apoptosis in human A549 cells assessed as viable cells at 0.5 uM after 48 hrs by Annexin V-FITC/propidium iodide staining based flow cytometry (reference value: 96.08 %); type: functional; details: A549, 48 h, read-out: Activity
A549 [22] = assay: Cell cycle arrest in human A549 cells assessed as accumulation at G2/M phase after 48 hrs by propidium iodide staining based flow cytometry; type: functional
A549 [23] = assay: Cell cycle arrest in human A549 cells assessed as accumulation at G2/M phase at 0.5 uM after 48 hrs by propidium iodide staining based flow cytometry (reference value: 14.62%); type: functional
A549 [24] = assay: Induction of apoptosis in human A549 cells assessed as early apoptotic cells at 1 uM after 48 hrs by Annexin V-FITC/propidium iodide staining based flow cytometry (reference value: 0.57 %); type: functional
A549 [25] = assay: Induction of apoptosis in human A549 cells assessed as late apoptotic cells at 1 uM after 48 hrs by Annexin V-FITC/propidium iodide staining based flow cytometry (reference value: 2.70 %); type: functional
HL-60 = assay: Cytotoxicity against human HL60 cells assessed as inhibition of cell growth after 3 days by MTT assay; type: functional, cell-based; details: HL-60, 72 h
P338 = assay: Cytotoxicity against mouse […] cells assessed as inhibition of cell growth after 3 days by MTT assay; type: functional, cell-based; details: 72 h
HeLa = assay: Cytotoxicity against human HeLa cells assessed as inhibition of cell growth by MTT assay; type: functional, cell-based

## COc1ccc2c3ccnc(C)c3n(C)c2c1
A549 [1]
  IC50: 4.97 µM
MCF7
  IC50: > 50 µM
SMMC-7721
  IC50: 43.6 µM
SGC-7901
  IC50: 9.67 µM

## CCCCCn1c2cc(OC)ccc2c2ccnc(C)c21
A549 [1]
  IC50: 6.37 µM
MCF7
  IC50: > 50 µM
SMMC-7721
  IC50: 17.2 µM
SGC-7901
  IC50: 20.5 µM

## COc1ccc2c3ccnc(C)c3n(Cc3ccccc3F)c2c1
A549 [1]
  IC50: 5.67 µM
MCF7
  IC50: > 50 µM
SMMC-7721
  IC50: > 50 µM
SGC-7901
  IC50: 43.6 µM

## COc1ccc2c3ccnc(C)c3n(CCCCCBr)c2c1
A549 [1]
  IC50: 4.8 µM
MCF7
  IC50: 0.76 µM
SMMC-7721
  IC50: 6.49 µM
SGC-7901
  IC50: 9.34 µM

## COc1ccc2c3ccnc(C)c3n(S(=O)(=O)c3ccc(C)cc3)c2c1
A549 [1]
  IC50: 0.48 µM
A549 [2]
  Activity: 8.63%
A549 [3]
  Activity: Dose-dependent effect
A549 [4]
  Activity: 42.79%
A549 [5]
  Activity: 25.9%
A549 [6]
  Activity: 30.27%
A549 [7]
  Activity: 36.64%
A549 [8]
  Activity: Dose-dependent effect
A549 [9]
  Activity: 53.31%
A549 [10]
  viability at 1 µM: 28.2%
MCF7
  IC50: > 50 µM
A549 [11]
  Activity: 21.15%
A549 [12]
  Activity: 2.68%
A549 [13]
  Activity: 31.93%
SMMC-7721
  IC50: > 50 µM
A549 [14]
  Activity: 16.42%
A549 [15]
  Activity: 36.99%
A549 [16]
  Activity: 11.5%
A549 [17]
  Activity: 36.46%
A549 [18]
  Activity: 24.88%
A549 [19]
  Activity: 18.76%
A549 [20]
  viability at 0.1 µM: 73.1%
A549 [21]
  viability at 0.5 µM: 45%
SGC-7901
  IC50: 1.56 µM
A549 [22]
  Activity: Dose-dependent effect
A549 [23]
  Activity: 31.09%
A549 [24]
  Activity: 17.59%
A549 [25]
  Activity: 54.11%

## CCCCCCCCCCCC(=O)n1c2cc(OC)ccc2c2ccnc(C)c21
A549 [1]
  IC50: 14.6 µM
MCF7
  IC50: > 50 µM
SMMC-7721
  IC50: 49.1 µM
SGC-7901
  IC50: 8.76 µM

## COc1ccc(S(=O)(=O)Nc2cccnc2Nc2ccc(O)cc2)cc1 [ABT-751]
HL-60
  IC50: 0.2 µM
P338
  IC50: 0.16 µM

## COc1ccc2c3ccnc(C)c3n(Cc3ccccc3)c2c1
A549 [1]
  IC50: 7.49 µM
MCF7
  IC50: > 50 µM
SMMC-7721
  IC50: 45.6 µM
SGC-7901
  IC50: 38.2 µM

## COc1ccc2c3ccnc(C)c3n(C(C)=O)c2c1
A549 [1]
  IC50: 1.27 µM
MCF7
  IC50: > 50 µM
SMMC-7721
  IC50: > 50 µM
SGC-7901
  IC50: 6.39 µM

## COc1ccc2c3ccnc(C)c3n(CCCCBr)c2c1
A549 [1]
  IC50: 12.2 µM
MCF7
  IC50: 0.85 µM
SMMC-7721
  IC50: 8.34 µM
SGC-7901
  IC50: 10.6 µM

## COc1cccc2c1C(=O)c1c(O)c3c(c(O)c1C2=O)C[C@@](O)(C(=O)CO)C[C@@H]3O[C@H]1C[C@H](N)[C@H](O)[C@H](C)O1 [DOXORUBICIN]
A549 [1]
  IC50: 0.76 µM
MCF7
  IC50: 0.83 µM
SMMC-7721
  IC50: 1.39 µM

## COc1ccc2c3ccnc(C)c3n(CCCCCl)c2c1
A549 [1]
  IC50: 8.73 µM
MCF7
  IC50: 2.94 µM
SMMC-7721
  IC50: 17.9 µM
SGC-7901
  IC50: 7.21 µM

## CCCCCCCCn1c2cc(OC)ccc2c2ccnc(C)c21
A549 [1]
  IC50: 4.77 µM
MCF7
  IC50: > 50 µM
SMMC-7721
  IC50: 6.95 µM
SGC-7901
  IC50: 6.68 µM

## COc1ccc2c3ccnc(C)c3n(CCCc3ccccc3)c2c1
HeLa
  IC50: 24 µM

## COc1ccc2c3ccnc(C)c3n(Cc3cc(F)cc(F)c3)c2c1
A549 [1]
  IC50: 18.4 µM
MCF7
  IC50: > 50 µM
SMMC-7721
  IC50: > 50 µM
SGC-7901
  IC50: 6.47 µM
